Results: patent US20030181436A1, “Treatment for AIDS, HIV, and other related diseases and compounds for use therewith” (priority 2001, published 2003)

Legend:
HeLa CD4 LTR β-gal cells = test: Cytotoxicity for HeLa CD4 LTR β-gal cells; type: cell-based; conditions: for cytotoxic effects on the HeLa CD4 LTR β-gal cells: initial testing
Procedure: At assay termination the assay plates were stained with the soluble tetrazolium-based dye MTS (CellTiter® Reagent, Promega) to determined cell viability and quantify compound toxicity. […] At termination of the assay 20 μL of MTS reagent was added per well. The wells were incubated for 4 h at 37° C., 5% CO2. Adhesive plate scalers were used in place of the lids, the sealed plate was inverted several times to mix the soluble formazan product and the plate was read spectrophotometrically at 490 nm with a 650 nm reference wavelength on a Molecular Devices Vmax plate reader.
This cell line represents one of 3 standard models for performing time of addition assays.

HeLa CD4 LTR B-gal cells = test: Attachment assay, toxicity on sister plates by MTS; type: cell-based; conditions: for TC50: attachment assay
Procedure: The attachment assay was performed with the HeLa CD4 LTR B-gal cells available from the AIDS Research and Reference Reagent Repository. […] HeLa CD4 LTR B-gal cells express cell surface CD4 and contain an LTR B-galactosidase reporter construct. Upon infection either the Tat protein incorporated into the virion or new Tat produced following virus integration and transcription trans-activate the LTR B-gal reporter, leading to expression of the B-galactosidase enzyme. HeLa CD4 LTR B-gal cells are routinely cultured with the required selection antibiotics and scrended for mycoplasma contamination. Twenty-four h prior to initiation of the assay cells were trypsinized, counted and 1×10^4 cells placed in a 0.2 cm well in media without selection antibiotics. Media was removed and compound media placed on the cells and incubated for 15 to 30 min at 37° C. A known titer of virus was then added to the wells and the incubation continued for 1 h. At the end of the incubation the wells were washed 6 times with media and the culture continued for 48 h. At 48 h the wells were washed one time with PBS and B-galactosidase enzyme expression determined by chemiluminescence per manufacturers instructions (Tropix Gal-screen TM, Tropix, Bedford, Mass.). Compound toxicity was monitored on sister plates using MTS dye reduction.

PBMCs = type: cell-based, Human
Procedure: Peripheral blood […] cells (PBMCs) were obtained from normal hepatitis B and C and HIV-1 negative donors by ficoll hypaque gradient separation. Briefly, anti-coagulated blood was diluted 1:1 with Dulbecco's phosphate buffered saline without Ca^+2 and Mg^+@ (PBS) and layered over 14 mL of Lymphocyte separation media in a 50 ml centrifuge tube. Tubes were then centrifuged for 30 minutes at 600×g. Banded PBLs were gently aspirated from the resulting interface and subsequently washed 2× with PBS by low speed centrifugation. The mononuclear cells were counted, viability determined by Trypan Blue dye exclusion and resuspended in RPMI 1640 medium supplemented with 15% FBS (heat inactivated), 2 mM L-glutamine, 100 U/mL penicillin, 100 μg/mL streptomycin, and 10 μg/mL gentamycin with 2 μg/mL phytohemagluttin (PHA) at 1×10^6 cells/mL. The cells were cultured for 48 to 72 h at 37° C., 5%, C^02. Following incubation, cells were collected by centrifugation, washed and resuspended in RPMI 1640 supplemented with 15% FBS (heat inactivated), 2 mM L-glutamine, 100 U/mL penicillin, 100 μg/mL streptomycin, and 10 μg/mL gentamycin with 40 U/mL, recombinant IL-2 (R & D Systems, Minneapolis, Minn.). IL-2 was included in the culture medium to maintain the cell division initiated by the PHA mitogenic stimulation. The cultures were then maintained until use by ½ culture volume change with fresh IL-2 containing medium every 3 days.
Human peripheral blood mononuclear cells from a minimum of 2 donors, that were blasted with PHA and IL-2, were counted, viability determined by Trypan Blue dye exclusion and mixed in equal ratios. Pooled donors were used to minimize the variability observed between individual donors which results from quantitative and qualitative differences in HIV infection and overall response to the PHA and IL-2 of primary lymphocyte populations. […] The assay was incubated for 6 days in a humidified atmosphere at 37° C., 5% CO2, the plates analyzed for cell viability by MTS dye reduction or incorporation of [^3H] metabolite incorporation.
[^3H]Uridine, [^3H] thymidine or [^3H]leucine incorporation were measured in the following manner. […] Incorporation was then determined on a Wallac Microbeta counter following lysis of the cells with H2O and capture on glass fiber filters using a Skatron harvester.
At assay termination the assay plates were stained with the soluble tetrazolium-based dye MTS (CellTiter® Reagent, Promega) to determined cell viability and quantify compound toxicity. MTS is metabolized by the mitochondria enzymes of metabolically active cells to a soluble formazan product, allowing the rapid quantitative analysis cell viability and compound cytotoxicity. […]

Substance: Zinc Iodiscorbate [Compound Z]
- TOXICITY VALUES (Cell Titer) MEAN (HeLa CD4 LTR β-gal cells; 3.2 μG/mL): 1.156 O. D.
- TOXICITY VALUES (Cell Titer) MEAN (HeLa CD4 LTR β-gal cells; 10 μG/mL): 1.176 O. D.
- % CC (HeLa CD4 LTR β-gal cells; 100 μG/mL): 22.6%
- TOXICITY VALUES (Cell Titer) MEAN (HeLa CD4 LTR β-gal cells; 100 μG/mL): 0.259 O. D.
- % CC (HeLa CD4 LTR β-gal cells; 320 μG/mL): 18.5%
- TOXICITY VALUES (Cell Titer) MEAN (HeLa CD4 LTR β-gal cells; 320 μG/mL): 0.212 O. D.
- % CC (HeLa CD4 LTR β-gal cells; 1000 μG/mL): 18.2%
- TOXICITY VALUES (Cell Titer) MEAN (HeLa CD4 LTR β-gal cells; 1000 μG/mL): 0.208 O. D.
- TC50 (HeLa CD4 LTR β-gal cells; HeLa CD4 LTR β-gal cells): 75 µg/mL
- cytotoxic effects on the HeLa CD4 LTR β-gal cells (HeLa CD4 LTR β-gal cells): no significant cytotoxic effects
- TOXICITY VALUES (Colt Titer) MEAN (HeLa CD4 LTR B-gal cells; 0.32 μG/Ml): 0.989 O. D.
- TOXICITY VALUES (Colt Titer) MEAN (HeLa CD4 LTR B-gal cells; 1 μG/Ml): 0.989 O. D.
- TOXICITY VALUES (Colt Titer) MEAN (HeLa CD4 LTR B-gal cells; 3.2 μG/Ml): 0.989 O. D.
- TOXICITY VALUES (Colt Titer) MEAN (HeLa CD4 LTR B-gal cells; 10 μG/Ml): 0.989 O. D.
- TOXICITY VALUES (Colt Titer) MEAN (HeLa CD4 LTR B-gal cells; 32 μG/Ml): 0.989 O. D.
- TOXICITY VALUES (Colt Titer) MEAN (HeLa CD4 LTR B-gal cells; 100 μG/Ml): 0.989 O. D.
- TC50 (HeLa CD4 LTR B-gal cells): greater than 100 μg/mL
- TC50 (HeLa CD4 LTR B-gal cells; listed as COMPOUND Z): TC50 (μG/mL) + >100 μg/mL
- non-toxic to PBMCs at concentrations (PBMCs): above 400 μg/ml

Substance: Potassium Iodiscorbate [Compound K]
- cytotoxic effects on the HeLa CD4 LTR β-gal cells (HeLa CD4 LTR β-gal cells): no significant cytotoxic effects
- TC50 in PBMCs by MTS (PBMCs): 499 µg/mL
- non-toxic to PBMCs at concentrations (PBMCs): above 400 μg/ml
- protein (leucine incorporation) and RNA (uridine incorporation) production start to drop (PBMCs): above 32 μg/ml
